Target: Tyrosine-protein kinase JAK1 (Homo sapiens, UniProt P23458)
Experiment: Inhibition of JAK1 (unknown origin) preincubated for 20 mins followed by 33P-ATP addition and measured after 2 hrs by filter binding assay

Tyrosine-protein kinase JAK1, sequence (P23458 whole entry): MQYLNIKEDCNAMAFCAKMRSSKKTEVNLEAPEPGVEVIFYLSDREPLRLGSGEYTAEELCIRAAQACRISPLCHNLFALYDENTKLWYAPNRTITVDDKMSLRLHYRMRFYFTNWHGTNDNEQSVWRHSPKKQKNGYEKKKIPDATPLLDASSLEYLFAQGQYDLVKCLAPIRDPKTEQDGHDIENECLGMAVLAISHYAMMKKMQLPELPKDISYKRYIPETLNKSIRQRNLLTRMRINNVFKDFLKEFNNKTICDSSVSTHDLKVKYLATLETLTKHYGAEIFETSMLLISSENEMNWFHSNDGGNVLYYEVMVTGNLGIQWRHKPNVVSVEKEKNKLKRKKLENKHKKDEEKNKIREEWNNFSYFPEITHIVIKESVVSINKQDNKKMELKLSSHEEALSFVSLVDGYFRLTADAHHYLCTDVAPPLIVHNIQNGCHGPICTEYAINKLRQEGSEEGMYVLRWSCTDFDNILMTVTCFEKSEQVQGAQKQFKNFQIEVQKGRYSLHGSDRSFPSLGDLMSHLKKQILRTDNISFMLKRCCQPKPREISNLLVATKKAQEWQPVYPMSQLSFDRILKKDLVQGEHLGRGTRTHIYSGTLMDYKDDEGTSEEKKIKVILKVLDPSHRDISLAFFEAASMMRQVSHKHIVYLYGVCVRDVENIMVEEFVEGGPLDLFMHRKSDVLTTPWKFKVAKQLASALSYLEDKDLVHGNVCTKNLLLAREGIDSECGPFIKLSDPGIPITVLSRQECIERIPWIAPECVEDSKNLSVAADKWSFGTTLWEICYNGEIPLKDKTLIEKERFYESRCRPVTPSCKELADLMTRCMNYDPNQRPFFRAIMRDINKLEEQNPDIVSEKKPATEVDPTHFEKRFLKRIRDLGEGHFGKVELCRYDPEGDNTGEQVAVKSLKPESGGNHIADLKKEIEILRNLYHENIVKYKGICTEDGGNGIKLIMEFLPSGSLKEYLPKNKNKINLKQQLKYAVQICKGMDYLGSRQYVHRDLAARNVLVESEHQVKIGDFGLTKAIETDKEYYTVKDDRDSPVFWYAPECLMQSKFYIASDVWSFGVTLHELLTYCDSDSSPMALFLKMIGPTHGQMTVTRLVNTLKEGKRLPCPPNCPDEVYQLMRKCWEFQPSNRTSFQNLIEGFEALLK

| SMILES | IC50 |
| --- | --- |
| N#CC1CCCC1n1cc(C(N)=O)c(Nc2ccc3c(c2)C=CB(O)O3)n1 (stereo unspecified) | < 10 nM |
| N#CC1CCOCC1n1cc(C(N)=O)c(Nc2ccc3c(c2)C2CC2B(O)O3)n1 (stereo unspecified) | < 10 nM |
| N#CC1CCOCC1n1cc(C(N)=O)c(Nc2ccc3c(c2)C(Cl)=CB(O)O3)n1 (stereo unspecified) | < 10 nM |
| N#CC1CCCC1n1cc(C(N)=O)c(Nc2ccc3c(c2)COB3O)n1 (stereo unspecified) | < 10 nM |
| N#CC1CCOCC1n1cc(C(N)=O)c(Nc2cc(Cl)c3c(c2)COB3O)n1 (stereo unspecified) | < 10 nM |
| N#CC1CCOCC1n1cc(C(N)=O)c(Nc2cc(F)c3c(c2)COB3O)n1 (stereo unspecified) | < 10 nM |

From ChEMBL document CHEMBL5126652, “Boron-Containing Pyrazole Compounds as JAK Inhibitors for Treating Inflammation, Autoimmune Diseases, and Cancer” (ACS Med Chem Lett, 2022)
